Measured values: US10941158B2, “Pyrazole ACC inhibitors and uses thereof” (Gilead Apollo, LLC, priority 2015, dated 2021)
In brackets after ≈: the same amount, converted by molar mass. Like-named read-outs stand apart in the source and are kept apart here.

Columns and labels:
ACC1 = ACC1 isolated from rat, mouse, monkey and human; cited from earlier work
ACC2 = ACC2 isolated from rat, mouse, monkey and human; cited from earlier work
[1] = test system: Fusarium moniliforme (Fm); experiment: Growth inhibition assay of fungal pathogens; type: cell-based; settings: for IC90: Fusarium verticillioides, 48 h, read-out: Concentration at 90% Inhibition Fm
Outline: (§1)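 OD600 (blank-subtracted) plus visual scoring at 48 h, vs 2% DMSO ctrl → % inhibition. Final cpd 50/10/2 or 2/0.4/0.08 ppm. Fm/Bc/Dm spores in 17% V8 broth; Rs as 1.5 mm plugs in ¼ PDB.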

Botrtyis cinerea (Bc) = experiment: Growth inhibition assay of fungal pathogens; type: cell-based; settings: 48 h, read-out: Concentration at 90% Inhibition Bc
Outline: as §1

[2] = test system: Phytophthora capsici (Pc); experiment: Growth inhibition assay of fungal pathogens; type: cell-based; settings: for IC90: Phytophthora capsici, read-out: Concentration at 90% Inhibition Pc
Outline: (§2)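 Compounds in DMSO tested at final 50, 10, 2 ppm or 2, 0.4, 0.08 ppm. Spores in 17% V8 medium, or 1.5 mm mycelial plugs in ¼ PDB for R. solani, incubated with compound. OD600 and visual ratings at 48 h versus 2% DMSO control gave percent growth inhibition.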

Diplodia maydis (Dm) = experiment: Growth inhibition assay of fungal pathogens; type: cell-based; settings: Stenocarpella maydis, 48 h, read-out: Concentration at 90% Inhibition Dm
Outline: as §1

[3] = test system: Fusarium virguliforme (Fv); experiment: Growth inhibition assay of fungal pathogens; type: cell-based; settings: 48 h
Outline: as §2

Septoria tritici (St) = experiment: Growth inhibition assay of fungal pathogens; type: cell-based; settings: for IC90: Zymoseptoria tritici, read-out: Concentration at 90% Inhibition St
Outline: as §2

Rhizoctonia solani (Rs) = experiment: Growth inhibition assay of fungal pathogens; type: cell-based; settings: 48 h, read-out: Concentration at 90% Inhibition Rs
Outline: as §1

[4] = test system: Collectotrichum graminicola (Cg); experiment: Growth inhibition assay of fungal pathogens; type: cell-based; settings: 48 h, read-out: Concentration at 90% Inhibition Cg
Outline: as §2

human (hACC2) ACC2 = human (hACC2) ACC2 (Homo sapiens, UniProt O00763); experiment: In vitro Acetyl-CoA Carboxylase (ACC) inhibition assay (ADP-Glo), hACC2; type: biochemical
Chain of human (hACC2) ACC2 (O00763 whole entry): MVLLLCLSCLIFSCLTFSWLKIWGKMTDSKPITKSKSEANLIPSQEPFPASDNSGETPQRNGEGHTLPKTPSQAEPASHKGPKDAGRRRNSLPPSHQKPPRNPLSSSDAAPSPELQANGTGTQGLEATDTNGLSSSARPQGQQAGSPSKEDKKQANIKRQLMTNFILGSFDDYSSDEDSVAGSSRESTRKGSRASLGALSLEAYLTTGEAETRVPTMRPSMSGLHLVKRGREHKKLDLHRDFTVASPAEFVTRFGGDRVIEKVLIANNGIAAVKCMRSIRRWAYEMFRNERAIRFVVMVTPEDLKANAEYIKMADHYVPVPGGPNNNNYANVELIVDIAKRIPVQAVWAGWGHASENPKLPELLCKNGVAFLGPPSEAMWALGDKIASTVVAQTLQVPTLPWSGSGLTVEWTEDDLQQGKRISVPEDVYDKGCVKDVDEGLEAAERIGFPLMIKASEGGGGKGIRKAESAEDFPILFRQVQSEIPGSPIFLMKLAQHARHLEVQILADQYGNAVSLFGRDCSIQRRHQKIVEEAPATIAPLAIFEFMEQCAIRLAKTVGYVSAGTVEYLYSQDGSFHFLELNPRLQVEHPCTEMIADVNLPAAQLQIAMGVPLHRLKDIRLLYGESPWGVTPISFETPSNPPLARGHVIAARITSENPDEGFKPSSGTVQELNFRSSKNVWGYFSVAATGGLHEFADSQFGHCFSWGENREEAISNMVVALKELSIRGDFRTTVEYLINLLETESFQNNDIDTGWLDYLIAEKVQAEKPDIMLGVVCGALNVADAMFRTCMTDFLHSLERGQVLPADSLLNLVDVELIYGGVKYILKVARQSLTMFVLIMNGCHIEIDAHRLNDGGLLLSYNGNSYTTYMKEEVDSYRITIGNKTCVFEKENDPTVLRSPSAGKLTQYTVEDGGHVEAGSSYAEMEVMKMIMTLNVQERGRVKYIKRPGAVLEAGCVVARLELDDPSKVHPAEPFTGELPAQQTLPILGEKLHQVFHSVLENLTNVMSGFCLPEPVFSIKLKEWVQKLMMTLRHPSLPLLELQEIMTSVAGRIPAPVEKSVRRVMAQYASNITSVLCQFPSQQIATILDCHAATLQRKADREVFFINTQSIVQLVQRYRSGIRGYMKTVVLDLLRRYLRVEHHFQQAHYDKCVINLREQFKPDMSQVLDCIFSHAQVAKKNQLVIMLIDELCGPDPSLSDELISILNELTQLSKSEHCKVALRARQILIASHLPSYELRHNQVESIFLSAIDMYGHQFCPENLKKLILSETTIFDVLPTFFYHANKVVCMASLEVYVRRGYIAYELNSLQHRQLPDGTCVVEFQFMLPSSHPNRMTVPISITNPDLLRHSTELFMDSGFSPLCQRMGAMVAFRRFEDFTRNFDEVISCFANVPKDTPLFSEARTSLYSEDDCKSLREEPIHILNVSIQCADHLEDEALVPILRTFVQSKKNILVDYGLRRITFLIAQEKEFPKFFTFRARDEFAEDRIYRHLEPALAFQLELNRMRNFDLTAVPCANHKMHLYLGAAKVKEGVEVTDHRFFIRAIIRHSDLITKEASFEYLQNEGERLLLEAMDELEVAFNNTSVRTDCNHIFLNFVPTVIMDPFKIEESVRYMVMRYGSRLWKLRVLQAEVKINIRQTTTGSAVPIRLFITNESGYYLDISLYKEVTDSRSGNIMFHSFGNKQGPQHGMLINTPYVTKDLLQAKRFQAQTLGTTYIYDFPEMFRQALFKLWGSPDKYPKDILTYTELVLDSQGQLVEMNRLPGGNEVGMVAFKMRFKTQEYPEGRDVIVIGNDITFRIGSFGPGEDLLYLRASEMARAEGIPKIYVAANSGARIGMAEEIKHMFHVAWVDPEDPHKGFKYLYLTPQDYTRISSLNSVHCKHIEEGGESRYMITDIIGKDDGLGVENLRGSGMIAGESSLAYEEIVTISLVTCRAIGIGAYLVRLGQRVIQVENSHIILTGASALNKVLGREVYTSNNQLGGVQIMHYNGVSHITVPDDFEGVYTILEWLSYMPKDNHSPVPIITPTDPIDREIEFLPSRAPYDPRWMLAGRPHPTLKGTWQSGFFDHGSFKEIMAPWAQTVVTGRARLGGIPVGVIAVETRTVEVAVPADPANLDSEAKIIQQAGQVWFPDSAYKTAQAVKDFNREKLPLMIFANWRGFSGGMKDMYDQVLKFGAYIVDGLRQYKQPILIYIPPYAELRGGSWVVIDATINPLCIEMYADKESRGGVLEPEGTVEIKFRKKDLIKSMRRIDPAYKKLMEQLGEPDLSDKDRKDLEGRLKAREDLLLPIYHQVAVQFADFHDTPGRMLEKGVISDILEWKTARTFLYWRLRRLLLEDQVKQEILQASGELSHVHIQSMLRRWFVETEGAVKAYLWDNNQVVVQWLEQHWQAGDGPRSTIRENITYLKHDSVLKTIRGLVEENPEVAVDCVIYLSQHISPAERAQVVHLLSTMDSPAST
Description: The detailed procedure is as follows. […] 10 μL ADP glo reagent was added. […] 20 μL kinase detection reagent was added.
“NA” stands for “not assayed.”

fungal (fACC2) ACC2 = fungal (fACC2) ACC2 (UniProt Q00955); settings: read-out: fACC2 IC50; fungal ACC2, ADP-Glo
Chain of fungal (fACC2) ACC2 (Q00955 whole entry): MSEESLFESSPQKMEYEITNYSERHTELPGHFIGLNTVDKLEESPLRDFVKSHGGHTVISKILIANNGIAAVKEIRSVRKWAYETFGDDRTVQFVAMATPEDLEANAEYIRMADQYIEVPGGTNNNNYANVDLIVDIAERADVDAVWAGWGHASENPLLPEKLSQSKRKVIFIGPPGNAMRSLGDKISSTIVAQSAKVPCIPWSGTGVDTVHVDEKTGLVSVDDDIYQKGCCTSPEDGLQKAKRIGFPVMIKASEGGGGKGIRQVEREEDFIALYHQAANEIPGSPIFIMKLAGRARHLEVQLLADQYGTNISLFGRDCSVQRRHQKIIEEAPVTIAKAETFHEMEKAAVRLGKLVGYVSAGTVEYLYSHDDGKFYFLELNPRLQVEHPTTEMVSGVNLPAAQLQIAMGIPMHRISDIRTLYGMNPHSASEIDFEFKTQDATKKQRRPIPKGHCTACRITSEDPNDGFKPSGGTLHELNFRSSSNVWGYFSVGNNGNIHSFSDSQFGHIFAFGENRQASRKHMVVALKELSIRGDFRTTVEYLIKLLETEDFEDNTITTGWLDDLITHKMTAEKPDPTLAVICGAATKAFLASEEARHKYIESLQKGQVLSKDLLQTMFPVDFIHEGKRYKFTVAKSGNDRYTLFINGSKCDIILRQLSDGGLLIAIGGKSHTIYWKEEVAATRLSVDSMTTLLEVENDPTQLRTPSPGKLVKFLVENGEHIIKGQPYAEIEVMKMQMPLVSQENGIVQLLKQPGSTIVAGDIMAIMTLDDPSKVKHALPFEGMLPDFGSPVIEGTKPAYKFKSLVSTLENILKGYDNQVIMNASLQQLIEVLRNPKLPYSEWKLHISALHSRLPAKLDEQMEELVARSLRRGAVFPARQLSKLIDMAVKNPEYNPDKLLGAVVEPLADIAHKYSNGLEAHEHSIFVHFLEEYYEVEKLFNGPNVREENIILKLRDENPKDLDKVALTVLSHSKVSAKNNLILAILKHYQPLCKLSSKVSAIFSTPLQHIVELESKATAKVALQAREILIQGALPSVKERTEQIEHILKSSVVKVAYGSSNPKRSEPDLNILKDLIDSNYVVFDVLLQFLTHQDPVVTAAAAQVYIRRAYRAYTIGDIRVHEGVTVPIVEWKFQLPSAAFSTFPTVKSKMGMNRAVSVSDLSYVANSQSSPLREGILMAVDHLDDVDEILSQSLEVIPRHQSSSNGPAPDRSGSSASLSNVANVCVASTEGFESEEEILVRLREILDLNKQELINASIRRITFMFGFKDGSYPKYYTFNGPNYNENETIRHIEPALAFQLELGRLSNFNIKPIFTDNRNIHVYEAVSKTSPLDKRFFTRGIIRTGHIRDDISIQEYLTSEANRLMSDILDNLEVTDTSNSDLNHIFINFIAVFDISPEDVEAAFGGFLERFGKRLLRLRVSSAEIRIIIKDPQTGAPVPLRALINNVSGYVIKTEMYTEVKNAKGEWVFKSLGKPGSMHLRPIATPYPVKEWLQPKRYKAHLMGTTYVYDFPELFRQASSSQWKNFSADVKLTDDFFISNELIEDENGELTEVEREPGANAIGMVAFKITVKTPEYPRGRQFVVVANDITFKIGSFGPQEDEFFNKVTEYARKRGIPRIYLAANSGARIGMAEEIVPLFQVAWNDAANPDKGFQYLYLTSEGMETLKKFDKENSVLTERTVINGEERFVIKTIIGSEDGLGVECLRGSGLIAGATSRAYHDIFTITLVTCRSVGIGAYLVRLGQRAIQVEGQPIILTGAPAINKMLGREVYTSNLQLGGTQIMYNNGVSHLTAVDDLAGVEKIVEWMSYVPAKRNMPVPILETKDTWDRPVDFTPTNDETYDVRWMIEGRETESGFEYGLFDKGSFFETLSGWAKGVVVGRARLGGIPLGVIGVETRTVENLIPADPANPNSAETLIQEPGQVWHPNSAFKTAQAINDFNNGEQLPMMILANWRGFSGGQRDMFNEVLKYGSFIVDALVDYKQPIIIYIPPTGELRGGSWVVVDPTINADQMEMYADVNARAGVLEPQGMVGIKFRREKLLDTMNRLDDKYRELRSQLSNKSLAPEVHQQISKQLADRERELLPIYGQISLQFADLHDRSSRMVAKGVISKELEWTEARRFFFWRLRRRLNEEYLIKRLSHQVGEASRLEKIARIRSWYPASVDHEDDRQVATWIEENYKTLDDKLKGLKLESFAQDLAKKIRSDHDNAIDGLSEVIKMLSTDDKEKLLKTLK

C. krusei ATCC 6258 = experiment: Anti-Fungal (Candida) Activity Assay, broth microtiter MIC; type: cell-based; settings: Pichia kudriavzevii, read-out: MIC C. krusei ATCC 6258
Outline: (§3)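 Strains plated from frozen stock onto Sabouraud dextrose agar, 35 °C, 24 h; colonies suspended directly in RPMI 1640/MOPS, density from standard curves; CLSI M27-A3 microdilution; 48 h read, visual vs growth control.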

[5] = test system: C. parapsilosis ATCC 22019; experiment: as above; type: cell-based; settings: Lodderomyces parapsilosis, read-out: MIC C. parapsilosis ATCC 22019
Outline: as §3

C. albicans ATCC 90028 = experiment: as above; type: cell-based; settings: read-out: MIC C. albicans ATCC 90028
Outline: as §3

[6] = read-out: Concentration at 90% Inhibition Fv, Table 4a, 48 hours
[7] = read-out: Concentration at 90% Inhibition Fv, Table 4b, 48 hours

Row | SMILES | IC90 [1] [µg/mL] | Concentration at 90% Inhibition Fm ([1]; Table 4b, 48 hours) | IC90 (Botrtyis cinerea (Bc); Table 4a) [µg/mL] | IC90 (Botrtyis cinerea (Bc); Table 4b) [µg/mL] | IC90 ([2]; 48 h, Table 4a) [µg/mL] | IC90 ([2]; 48 h, Table 4b) [µg/mL] | IC90 (Diplodia maydis (Dm); Table 4a) [µg/mL] | IC90 (Diplodia maydis (Dm); Table 4b) [µg/mL] | IC90 [3, 6] [µg/mL] | IC90 [3, 7] [µg/mL] | IC90 (Septoria tritici (St); 48 h, Table 4a) [µg/mL] | IC90 (Septoria tritici (St); 48 h, Table 4b) [µg/mL] | IC90 (Rhizoctonia solani (Rs); Table 4a) [µg/mL] | IC90 (Rhizoctonia solani (Rs); Table 4b) [µg/mL] | IC90 ([4]; Table 4a) [µg/mL] | IC90 ([4]; Table 4b) [µg/mL] | IC50 (human (hACC2) ACC2) [nM] | IC50 (fungal (fACC2) ACC2) [nM] | MIC (C. krusei ATCC 6258; ATCC6258, 48 h) [µg/mL] | MIC ([5]; ATCC22019, 48 h) [µg/mL] | other results
1 | O=C(c1c2ccccc2cc2ccccc12)N1CCC(N2CCC[C@@H](C(=O)N3CCOCC3)C2)CC1 [CP-640186] | – | – | – | – | – | – | – | – | – | – | – | – | – | – | – | – | – | – | – | – | IC50 (ACC1): ~60 nM; IC50 (ACC2): ~60 nM
2 | COc1ccc(F)cc1[C@H](Cn1c(=O)n(C(C)(C)C(=O)NC(C)C)c(=O)c2c(C)c(-n3cccn3)sc21)OC[C@@H](C)O [Compound I-39, 2-(1-((R)-2-(5-fluoro-2-methoxyphenyl)-2-((R)-2-hydroxy-propoxy)ethyl)-5-methyl-2,4-dioxo-6-(1H-pyrazol-1-yl)-1,4-dihydrothieno[2,3-d]pyrimidin-3(2H)-yl)-N-isopropyl-2-methylpropanamide] | 0.4 (≈ 0.665 µM) | A (“A” provided a compound concentration of 0.4 ppm at 90% inhibition of fungal pathogens) | 2 (≈ 3.32 µM) | 2 (≈ 3.32 µM) | > 50 | 10 (≈ 16.6 µM) | 10 (≈ 16.6 µM) | 2 (≈ 3.32 µM) | > 50 | 2 (≈ 3.32 µM) | > 50 | 10 (≈ 16.6 µM) | 0.4 (≈ 0.665 µM) | 0.4 (≈ 0.665 µM) | 0.4 (≈ 0.665 µM) | 0.4 (≈ 0.665 µM) | 3 to 10 | 0.6 to 3 | 2.1 to 4 (≈ 3.49 to 6.65 µM) | > 4.1 | MIC (C. albicans ATCC 90028; ATCC90028, 48 h): > 4.1 µg/mL
3 | COc1ccc(F)cc1[C@H](Cn1c(=O)n([C@H](C)C(=O)NC(C)C)c(=O)c2c(C)c(-n3cccn3)sc21)OC(C)C [Compound I-30, (R)-2-(1-((R)-2-(5-fluoro-2-methoxyphenyl)-2-isopropoxyethyl)-5-methyl-2,4-dioxo-6-(1H-pyrazol-1-yl)-1,4-dihydrothieno[2,3-d]pyrimidin-3(2H)-yl)-N-isopropylpropanamide] | 0.4 (≈ 0.7 µM) | A (“A” provided a compound concentration of 0.4 ppm at 90% inhibition of fungal pathogens) | 2 (≈ 3.5 µM) | 2 (≈ 3.5 µM) | > 50 | > 50 | 2 (≈ 3.5 µM) | 2 (≈ 3.5 µM) | 0.4 (≈ 0.7 µM) | 0.4 (≈ 0.7 µM) | > 50 | > 50 | 2 (≈ 3.5 µM) | 2 (≈ 3.5 µM) | 2 (≈ 3.5 µM) | 2 (≈ 3.5 µM) | 3 to 10 | 0.6 to 3 | 0.25 to 1 (≈ 0.437 to 1.75 µM) | 0.25 to 1 (≈ 0.437 to 1.75 µM) | MIC (C. albicans ATCC 90028; ATCC90028, 48 h): 0.25 to 1 µg/mL (≈ 0.437 to 1.75 µM)
4 | COc1ccc(F)cc1[C@H](Cn1c(=O)n(C(C)C(=O)NC(C)C)c(=O)c2c(C)c(-n3cccn3)sc21)OC(C)C (stereo partly drawn) [Compound I-29, 2-(1-((R)-2-(5-fluoro-2-methoxyphenyl)-2-isopropoxy-ethyl)-5-methyl-2,4-dioxo-6-(1H-pyrazol-1-yl)-1,4-dihydrothieno[2,3-d]pyrimidin-3(2H)-yl)-N-isopropylpropanamide] | 0.4 (≈ 0.7 µM) | A (“A” provided a compound concentration of 0.4 ppm at 90% inhibition of fungal pathogens) | 2 (≈ 3.5 µM) | 2 (≈ 3.5 µM) | > 50 | > 50 | 2 (≈ 3.5 µM) | 2 (≈ 3.5 µM) | 2 (≈ 3.5 µM) | 2 (≈ 3.5 µM) | > 50 | > 50 | 2 (≈ 3.5 µM) | 2 (≈ 3.5 µM) | 2 (≈ 3.5 µM) | 2 (≈ 3.5 µM) | 10 to 40 | 0.6 to 3 | 2.1 to 4 (≈ 3.67 to 7 µM) | > 4.1 | MIC (C. albicans ATCC 90028; ATCC90028, 48 h): 1.1 to 2 µg/mL (≈ 1.92 to 3.5 µM)
5 | CCO[C@@H](Cn1c(=O)n(C(C)(C)C(=O)N2CCCC2)c(=O)c2c(C)c(-n3cccn3)sc21)c1cc(F)ccc1OC [Compound I-34, (R)-1-(2-ethoxy-2-(5-fluoro-2-methoxyphenyl)ethyl)-5-methyl-3-(2-methyl-1-oxo-1-(pyrrolidin-1-yl)propan-2-yl)-6-(1H-pyrazol-1-yl)thieno[2,3-d]pyrimidine-2,4(1H,3H)-dione] | – | – | 0.4 (≈ 0.685 µM) | 0.4 (≈ 0.685 µM) | – | – | 10 (≈ 17.1 µM) | 2 (≈ 3.43 µM) | – | – | – | – | 2 (≈ 3.43 µM) | 2 (≈ 3.43 µM) | 2 (≈ 3.43 µM) | 2 (≈ 3.43 µM) | 10 to 40 | 0.6 to 3 | – | – | IC90 ([1]; Table 4a, 48 hours): 0.08 µg/mL (≈ 0.137 µM); IC90 ([1]; Table 4b, 48 hours): 0.08 µg/mL (≈ 0.137 µM); IC90 ([2]; Table 4a, 48 hours): > 50 µg/mL; Concentration at 90% Inhibition Pc ([2]; Table 4b, 48 hours): D (“D” provided a compound concentration of >50 ppm at 90% inhibition of fungal pathogens); IC90 ([3]; Table 4a, 48 hours, read-out: Concentration at 90% Inhibition Fv): 0.4 µg/mL (≈ 0.685 µM); IC90 ([3]; Table 4b, 48 hours, read-out: Concentration at 90% Inhibition Fv): 0.4 µg/mL (≈ 0.685 µM); Concentration at 90% Inhibition St (Septoria tritici (St); Table 4b, 48 hours): D (“D” provided a compound concentration of >50 ppm at 90% inhibition of fungal pathogens); IC90 (Septoria tritici (St); Table 4a, 48 hours): > 50 µg/mL; MIC (C. krusei ATCC 6258; ATCC6258, 3 replicates, MIC recorded at 48 h): > 4.1 µg/mL; MIC ([5]; ATCC22019, 3 replicates, MIC recorded at 48 h): > 4.1 µg/mL; MIC (C. albicans ATCC 90028; ATCC90028, 3 replicates, MIC recorded at 48 h): > 4.1 µg/mL
6 | COCCO[C@@H](Cn1c(=O)n(C(C)(C)C(=O)NC(C)C)c(=O)c2c(C)c(-n3cccn3)sc21)c1cc(F)ccc1OC [Compound I-43, (R)-2-(I-(2-(5-fluoro-2-methoxyphenyl)-2-(2-methoxy-ethoxy)ethyl)-5-methyl-2,4-dioxo-6-(1H-pyrazol-1-yl)-1,4-dihydrothieno[2,3-d]pyrimidin-3(2H)-yl)-N-isopropyl-2-methylpropanamide] | 2 (≈ 3.32 µM) | B (“B” provided a compound concentration of 2.0 ppm at 90% inhibition of fungal pathogens) | > 50 | 10 (≈ 16.6 µM) | > 50 | > 50 | > 50 | 10 (≈ 16.6 µM) | 2 (≈ 3.32 µM) | 2 (≈ 3.32 µM) | > 50 | > 50 | > 50 | 10 (≈ 16.6 µM) | > 50 | > 50 | 10 to 40 | 0.6 to 3 | 0.25 to 1 (≈ 0.415 to 1.66 µM) | 2.1 to 4 (≈ 3.49 to 6.65 µM) | MIC (C. albicans ATCC 90028; ATCC90028, 48 h): 1.1 to 2 µg/mL (≈ 1.83 to 3.32 µM)
